According to US20080045506A1 (GLAXO GROUP LIMITED, priority 2004, published 2008):
Where a name gives a salt, the structure may show the parent alone.

These compounds were tested against T1, histamine H3 receptor (Homo sapiens, UniProt Q9Y5N1) (assay: Histamine H3 functional antagonist assay (method B)). Settings: [35S]-GTPγS SPA, membrane prepared from cultured H3 cells, histamine at EC80, averages of a number of experiments, read-out: functional pKi (fpKi), antagonism (converted).
T1 construct: expressed in transfected cells; host or cells: CHO K1 cells (pSwitch/pGene GeneSwitch system, mifepristone-induced), clone 3H3; membranes
T1 sequence (Q9Y5N1 whole entry): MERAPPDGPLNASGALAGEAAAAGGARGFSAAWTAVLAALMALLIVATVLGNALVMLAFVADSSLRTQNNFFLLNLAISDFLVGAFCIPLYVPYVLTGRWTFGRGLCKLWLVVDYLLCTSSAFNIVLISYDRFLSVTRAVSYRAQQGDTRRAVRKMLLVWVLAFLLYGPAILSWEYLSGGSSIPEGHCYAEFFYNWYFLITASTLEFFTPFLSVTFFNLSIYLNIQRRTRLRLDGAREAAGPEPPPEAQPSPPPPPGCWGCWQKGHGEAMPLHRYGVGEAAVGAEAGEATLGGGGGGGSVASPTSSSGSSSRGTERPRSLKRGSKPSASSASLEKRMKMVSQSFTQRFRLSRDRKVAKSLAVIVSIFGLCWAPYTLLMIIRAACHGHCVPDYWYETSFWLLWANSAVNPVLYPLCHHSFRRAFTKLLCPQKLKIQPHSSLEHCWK
Format: biochemical
Description: A membrane preparation containing histamine H3 receptors may be prepared in accordance with the following procedures:
(i) Generation of Histamine H3 Cell Line
DNA encoding the human histamine H3 gene (Huvar, A. et al. (1999) Mol. Pharmacol. 55(6), 1101-1107) was cloned into a holding vector, pcDNA3.1 TOPO (InVitrogen) and its cDNA was isolated from this vector by restriction digestion of plasmid DNA with the enzymes BamH1 and Not-1 and ligated into the inducible expression vector pGene (InVitrogen) digested with the same enzymes. The GeneSwitch™ system (a system where in transgene expression is switched off in the absence of an inducer and switched on in the presence of an inducer) was performed as described in U.S. Pat. Nos. 5,364,791; 5,874,534; and 5,935,934. Ligated DNA was transformed into competent DH5α E. coli host bacterial cells and plated onto Luria Broth (LB) agar containing Zeocin™ (an antibiotic which allows the selection of cells expressing the sh ble gene which is present on pGene and pSwitch) at 50 μg ml^−1. Colonies containing the re-ligated plasmid were identified by restriction analysis. DNA for transfection into mammalian cells was prepared from 250 ml cultures of the host bacterium containing the pGeneH3 plasmid and isolated using a DNA preparation kit (Qiagen Midi-Prep) as per manufacturers guidelines (Qiagen).
CHO K1 cells previously transfected with the pSwitch regulatory plasmid (InVitrogen) were seeded at 2×10e6 cells per T75 flask in Complete Medium, containing Hams F12 (GIBCOBRL, Life Technologies) medium supplemented with 10% v/v dialysed foetal bovine serum, L-glutamine, and hygromycin (100 μg ml^−1), 24 hours prior to use. Plasmid DNA was transfected into the cells using Lipofectamine plus according to the manufacturers guidelines (InVitrogen). 48 hours post transfection cells were placed into complete medium supplemented with 500 μg ml^−1 Zeocin™.
10-14 days post selection 10 nM Mifepristone (InVitrogen), was added to the culture medium to induce the expression of the receptor. 18 hours post induction cells were detached from the flask using ethylenediamine tetra-acetic acid (EDTA; 1:5000; InVitrogen), following several washes with phosphate buffered saline pH 7.4 and resuspended in Sorting Medium containing Minimum Essential Medium (MEM), without phenol red, and supplemented with Earles salts and 3% Foetal Clone II (Hyclone). Approximately 1×10e7 cells were examined for receptor expression by staining with a rabbit polyclonal antibody, 4a, raised against the N-terminal domain of the histamine H3 receptor, incubated on ice for 60 minutes, followed by two washes in sorting medium. Receptor bound antibody was detected by incubation of the cells for 60 minutes on ice with a goat anti rabbit antibody, conjugated with Alexa 488 fluorescence marker (Molecular Probes). Following two further washes with Sorting Medium, cells were filtered through a 50 μm Filcon™ (BD Biosciences) and then analysed on a FACS Vantage SE Flow Cytometer fitted with an Automatic Cell Deposition Unit. Control cells were non-induced cells treated in a similar manner. Positively stained cells were sorted as single cells into 96-well plates, containing Complete Medium containing 500 μg ml^−1 Zeocin™ and allowed to expand before reanalysis for receptor expression via antibody and ligand binding studies. One clone, 3H3, was selected for membrane preparation.
(ii) Membrane Preparation from Cultured Cells
All steps of the protocol are carried out at 4° C. and with pre-cooled reagents. The cell pellet is resuspended in 10 volumes of homogenisation buffer (50 mM N-2-hydroxyethylpiperazine-N′-2-ethanesulfonic acid (HEPES), 1 mM ethylenediamine tetra-acetic acid (EDTA), pH 7.4 with KOH, supplemented with 10e-6M leupeptin (acetyl-leucyl-leucyl-arginal; Sigma L2884), 25 μg/ml bacitracin (Sigma B0125), 1 mM phenylmethylsulfonyl fluoride (PMSF) and 2×10e-6M pepstain A (Sigma)). […]
Compound `Cc1noc(-c2ccc(N3CC[C@H](C(=O)N4CCN(C(C)C)CC4)C3)cc2)n1` [Example E3, 1-(1-Methylethyl)-4-({(3S)-1-[4-(3-methyl-1,2,4-oxadiazol-5-yl)phenyl]-3-pyrrolidinyl}carbonyl)piperazine] has a Ki of no more than 316 pM. With `Cc1noc(-c2ccc(N3CC[C@H](C(=O)N4CCN(C5CCC5)CC4)C3)cn2)n1` [Example E51, 1-Cyclobutyl-4-({(3S)-1-[6-(3-methyl-1,2,4-oxadiazol-5-yl)-3-pyridinyl]-3-pyrrolidinyl}carbonyl)piperazine hydrochloride] the Ki was no more than 316 pM. Work on `Cc1noc(-c2ccc(N3CCC(C(=O)N4CCCN(C5CCC5)CC4)C3)cc2)n1` (racemic) [Example E18, (R,S)-1-Cyclobutyl-4-({1-[4-(3-methyl-1,2,4-oxadiazol-5-yl)phenyl]-3-pyrrolidinyl}carbonyl)hexahydro-1H-1,4-diazepine] yielded a Ki of no more than 316 pM. `CC(C)N1CCN(C(=O)[C@H]2CCN(c3ccc(-n4ccnc4)cc3)C2)CC1` [Example E43, 1-({(3S)-1-[4-(1H-imidazol-1-yl)phenyl]-3-pyrrolidinyl}carbonyl)-4-(1-methylethyl)piperazine] showed a Ki of no more than 316 pM. With `CCc1noc(-c2ccc(N3CC[C@H](C(=O)N4CCCN(C(C)C)CC4)C3)cc2)n1` [Example E48, 1-({(3S)-1-[4-(3-Ethyl-1,2,4-oxadiazol-5-yl)phenyl]-3-pyrrolidinyl}carbonyl)-4-(1-methylethyl)hexahydro-1H-1,4-diazepine hydrochloride] the Ki was no more than 316 pM. `Cc1noc(-c2ccc(N3CC[C@H](C(=O)N4CCN(C5CCC5)CC4)C3)cc2F)n1` [Example E52, 1-Cyclobutyl-4-({(3S)-1-[3-fluoro-4-(3-methyl-1,2,4-oxadiazol-5-yl)phenyl]-3-pyrrolidinyl}carbonyl)piperazine hydrochloride] showed a Ki of no more than 316 pM. Compound `Cc1noc(-c2ccc(N3CC[C@H](C(=O)N4CCCN(C5CCC5)CC4)C3)cc2)n1` (single isomer, unassigned) [Example E18B, hydrochloride] has a Ki of no more than 316 pM. `Cc1noc(-c2ccc(N3CC[C@H](C(=O)N4CCCN(C5CCC5)CC4)C3)c(F)c2)n1` (single isomer, unassigned) [Example E20B, hydrochloride] showed a Ki of no more than 316 pM. In the case of `Cc1noc(-c2ccc(N3CC[C@H](C(=O)N4CCCN(CC5CC5)CC4)C3)cn2)n1` [Example E58, hydrochloride], the Ki is reported as no more than 316 pM. For `Cc1noc(-c2ccc(N3CC[C@H](C(=O)N4CCN(C(C)C)CC4)C3)c(F)c2)n1` [Example E25, 1-({(3S)-1-[2-Fluoro-4-(3-methyl-1,2,4-oxadiazol-5-yl)phenyl]-3-pyrrolidinyl}carbonyl)-4-(1-methylethyl)piperazine], the Ki was no more than 316 pM. Work on `Cc1ccc2cc(N3CC[C@@H](C(=O)N4CCCN(C5CCC5)CC4)C3)ccc2n1` (single isomer, unassigned) [Example E19A, hydrochloride] yielded a Ki of less than 10000 pM. `CC(C)N1CCN(C(=O)[C@H]2CCN(c3ccc(-c4nnc(-c5ccccc5)o4)cc3)C2)CC1` [Example E40, 1-(1-Methylethyl)-4-({(3S)-1-[4-(5-phenyl-1,3,4-oxadiazol-2-yl)phenyl]-3-pyrrolidinyl}carbonyl)piperazine] gave a Ki of no more than 316 pM. For `CC(C)N1CCN(C(=O)[C@H]2CCN(c3ccc(C#N)cc3)C2)CC1` [Example E36, 4-((3S)-3-{[4-(1-Methylethyl)-1-piperazinyl]carbonyl}-1-pyrrolidinyl)benzonitrile hydrochloride], the Ki was no more than 316 pM. In the case of `CC(=O)c1ccc(N2CC[C@@H](C(=O)N3CCCN(C4CCC4)CC3)C2)cc1` (single isomer, unassigned) [Example E21A, hydrochloride], the Ki is reported as less than 10000 pM. In the case of `CC(=O)c1ccc(N2CC[C@H](C(=O)N3CCCN(C(C)C)CC3)C2)cc1` [Example E27, 1-[4-((3S)-3-{[4-(1-Methylethyl)hexahydro-1H-1,4-diazepin-1-yl]carbonyl}-1-pyrrolidinyl)phenyl]ethanone], the Ki is reported as no more than 316 pM. `Cc1noc(-c2ccc(N3CC[C@H](C(=O)N4CCCN(C(C)C)CC4)C3)cn2)n1` [Example E53, 1-(1-Methylethyl)-4-({(3S)-1-[6-(3-methyl-1,2,4-oxadiazol-5-yl)-3-pyridinyl]-3-pyrrolidinyl}carbonyl)hexahydro-1H-1,4-diazepine hydrochloride] was tested, and the Ki was no more than 316 pM. With `Cc1nc(-c2ccc(N3CC[C@H](C(=O)N4CCN(C(C)C)CC4)C3)cc2)co1` [Example E32A, 1-(1-Methylethyl)-4-({(3S)-1-[4-(2-methyl-1,3-oxazol-4-yl)phenyl]-3-pyrrolidinyl}carbonyl)piperazine] the Ki was no more than 316 pM. Compound `Cc1noc(-c2ccc(N3CC[C@@H](C(=O)N4CCCN(C5CCC5)CC4)C3)cc2)n1` (single isomer, unassigned) [Example E18A, hydrochloride] has a Ki of no more than 316 pM. In the case of `Cc1noc(-c2ccc(N3CC[C@@H](C(=O)N4CCCN(C5CCC5)CC4)C3)c(F)c2)n1` (single isomer, unassigned) [Example E20A, hydrochloride], the Ki is reported as less than 10000 pM. For `Cc1noc(-c2ccc(N3CC[C@H](C(=O)N4CCCN(CC5CC5)CC4)C3)cc2)n1` [Example E11, 1-(Cyclopropylmethyl)-4-({(3S)-1-[4-(3-methyl-1,2,4-oxadiazol-5-yl)phenyl]-3-pyrrolidinyl}carbonyl)hexahydro-1H-1,4-diazepine], the Ki was no more than 316 pM. In the case of `CC(=O)c1ccc(N2CC[C@H](C(=O)N3CCN(C(C)C)CC3)C2)cc1` [Example E2, 1-[4-((3S)-3-{[4-(1-Methylethyl)-1-piperazinyl]carbonyl}-1-pyrrolidinyl)phenyl]ethanone], the Ki is reported as no more than 316 pM. With `CC(=O)c1ccc(N2CC[C@H](C(=O)N3CCCN(CC4CC4)CC3)C2)cc1` [Example E10, 1-[4-((3S)-3-{[4-(Cyclopropylmethyl)hexahydro-1H-1,4-diazepin-1-yl]carbonyl}-1-pyrrolidinyl)phenyl]ethanone] the Ki was no more than 316 pM. With `CCc1noc(-c2ccc(N3CC[C@H](C(=O)N4CCN(C(C)C)CC4)C3)cc2)n1` [Example E49, 1-({(3S)-1-[4-(3-Ethyl-1,2,4-oxadiazol-5-yl)phenyl]-3-pyrrolidinyl}carbonyl)-4-(1-methylethyl)piperazine hydrochloride] the Ki was no more than 316 pM. For `Cc1ccc2cc(N3CCC(C(=O)N4CCCN(C5CCC5)CC4)C3)ccc2n1` (racemic) [Example E19, (R,S)-6-{3-[(4-Cyclobutylhexahydro-1H-1,4-diazepin-1-yl)carbonyl]-1-pyrrolidinyl}-2-methylquinoline], the Ki was less than 10000 pM. Work on `CC(=O)c1ccc(N2CC[C@H](C(=O)N3CCN(C(C)C)[C@@H](C)C3)C2)cc1` [Example E5, 1-[4-((3S)-3-{[(3S)-3-Methyl-4-(1-methylethyl)-1-piperazinyl]carbonyl}-1-pyrrolidinyl)phenyl]ethanone] yielded a Ki of no more than 316 pM. Compound `CC(=O)c1ccc(N2CCC(C(=O)N3CCCN(C4CCC4)CC3)C2)cc1` (racemic) [Example E21, (R,S)-1-(4-{3-[(4-Cyclobutylhexahydro-1H-1,4-diazepin-1-yl)carbonyl]-1-pyrrolidinyl}phenyl)ethanone] has a Ki of no more than 316 pM. `Cc1ncc(-c2ccc(N3CC[C@H](C(=O)N4CCN(C(C)C)CC4)C3)cc2)o1` [Example E34, 1-(1-Methylethyl)-4-({(3S)-1-[4-(2-methyl-1,3-oxazol-5-yl)phenyl]-3-pyrrolidinyl}carbonyl)piperazine] showed a Ki of no more than 316 pM. `O=C([C@H]1CCN(c2ccc(C(F)(F)F)nc2)C1)N1CCN(C2CCC2)CC1` [Example E12, 1-Cyclobutyl-4-({(3S)-1-[6-(trifluoromethyl)-3-pyridinyl]-3-pyrrolidinyl}carbonyl)piperazine] gave a Ki of no more than 316 pM.
